Assay results: patent US7049311B1, “Pyrrolbenzodiazepines” (Spirogen Limited, priority 1998, dated 2006)
Read-outs that look alike come from different tables or passages of the source.

Assays:
[1] = test system: UACC-62; assay: NCI in vitro cytotoxicity screen; type: cell-based
Outline: (§1)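 Steps: seed cells (5000-40,000/well), preincubate 24 h, 37° C; add compound at 10^−4, 10^−5, 10^−6, 10^−7, 10^−8 […]; incubate 48 h, 5% CO2, 100% humidity; stain with SRB, read OD; derive LC50.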

[2] = test system: SNB-75; assay: NCI in vitro cytotoxicity screen; type: cell-based; settings: Homo sapiens, SNB-75, 48 h, read-out: LC50
Outline: as §1

[3] = test system: HCC-2998; assay: NCI in vitro cytotoxicity screen; type: cell-based; settings: Homo sapiens, HCC 2998, 48 h, read-out: LC50
Outline: as §1

[4] = test system: NCI-H460; assay: NCI in vitro cytotoxicity screen; type: cell-based; settings: Homo sapiens; NCI-H460 (Lung), 48 hour exposure, SRB assay; read-out: LC50 (the source's name)
Outline: as §1

[5] = test system: MALME-3M; assay: NCI in vitro cytotoxicity screen; type: cell-based
Outline: as §1

[6] = test system: A2780cisR; assay: Cytotoxicity in cisplatin-resistant A2780cisR (Example 9); type: cell-based, human; settings: for IC50: Homo sapiens, A2780cisR, 96 h
Protocol: (§2) Relative to the parental line, the A2780cisR subline is known to have elevated GSH levels, an increased level of repair of DNA-cisplatin adducts, and a decreased ability to uptake cisplatin (M. Smellie, et al., Br. J. Cancer, 1994, 70, 48).
(§3) The results, which were obtained by incubating the cells with the compounds for 96 hours at 37° C., and assessing the cell number using Sulforhodamine B, are presented in the table below: […]

[7] = test system: human ovarian carcinoma cell line A2780; assay: Cytotoxicity in A2780 (Example 9); type: cell-based
Protocol: as §2, §3

[8] = test system: OVCAR-5 (human ovarian tumour); assay: NCI human xenograft study; type: in vivo, mice
Protocol: (§4) These are carried out on nucle athymic mice with a disabled immune system. The human tumour tissue to be tested is implanted in their flanks, and whilst the control mouse receives no treatment, the others are subjected to varying doses of the test compound, which is administered intraperitoneally. The results are expressed as the toxicity of the compound, the amount of tumour growth, and the inhibition of growth.
(§5) Athymic nude mice bearing MDA-MB-435 xenografts (human mammary tumour), Ovcar-3 (human ovarian tumour), UACC-62 (human melanoma) or OVCAR-5 (human ovarian tumour) were treated at doses of 0.67 (high), 0.45 (middle) and 0.3 (low) mg/kg/injection given once every 4th day for a total of 3 doses (6 mice per dose level with 20 controls).
(§6) UP2001 (80) was evaluated by measuring the toxicity of the drug and its ability to retard tumour growth.
(§7) Toxicity represents the number of mice which died as a result of treatment. % T/C represents the width of the tumours in the “test” mice (T) (as measured with calipers) compared to control untreated mice (C) and presented as a percentage. % Growth Delay represents the increase in the amount of time taken for the tumors to reach an arbitrary size of 250 mg.

[9] = test system: UACC-62 (human melanoma); assay: NCI human xenograft study; type: in vivo, mice
Protocol: as §4, §5, §6, §7

[10] = test system: Ovcar-3 (human ovarian tumour); assay: NCI human xenograft study; type: in vivo, mice
Protocol: as §4, §5, §6, §7

[11] = test system: MDA-MB-435 xenografts (human mammary tumour); assay: NCI human xenograft study; type: in vivo, mice
Protocol: as §4, §5, §6, §7

[12] = 0.3 mg/kg/injection once every 4th day, 3 doses
[13] = 0.3 mg/kg/injection once every 4th day, 3 doses, mice which died as a result of treatment
[14] = 0.3 mg/kg/injection, time for tumours to reach 250 mg
[15] = 0.45 mg/kg/injection once every 4th day, 3 doses
[16] = 0.45 mg/kg/injection once every 4th day, 3 doses, mice which died as a result of treatment
[17] = 0.45 mg/kg/injection, time for tumours to reach 250 mg
[18] = 0.67 mg/kg/injection once every 4th day, 3 doses
[19] = 0.67 mg/kg/injection once every 4th day, 3 doses, mice which died as a result of treatment
[20] = 0.67 mg/kg/injection, time for tumours to reach 250 mg
[21] = MDA-MB-435 xenografts, dose not given

C=C1C[C@H]2C=Nc3cc(OCCCOc4cc5c(cc4OC)C(=O)N4CC(=C)C[C@H]4C=N5)c(OC)cc3C(=O)N2C1 [UP2001 (80)]
CC50 ([1]; Homo sapiens, UACC-62, 48 h, read-out: LC50, UACC-62 (Melanoma), 48 hour exposure, SRB assay): 70 nM
CC50 ([1]; read-out: LC50, UACC-62 (Melanoma), 48 hour exposure, SRB assay): 77 nM
CC50 [2]: 7.5 µM
CC50 [3]: 99 nM
CC50 [4]: 2700 nM
CC50 ([5]; Homo sapiens, Malme-3M, 48 h, read-out: LC50, MALME-3M (Melanoma), 48 hour exposure, SRB assay): 80 nM
CC50 ([5]; read-out: LC50, MALME-3M (Melanoma), 48 hour exposure, SRB assay): 73 nM
fold more potent than DSB-120 ([6]; A2780cisR cell line): ~9,000 fold
IC50 ([6]; read-out: IC50 A2780cisR): 0.024 nM
IC50 ([6]; read-out: IC50 A2780cis^a): 0.024 nM
fold increase in cytotoxicity compared to DSB-120 ([7]; A2780 cell line): 320 fold
IC50 ([7]; Homo sapiens, A2780, 96 h, read-out: IC50 A2780): 0.023 nM
% T/C Low ([8]; OVCAR-5, 0.3 mg/kg/injection once every 4th day, 3 doses): 38%
Toxicity Low ([8]; OVCAR-5, 0.3 mg/kg/injection once every 4th day, 3 doses, mice which died as a result of treatment): 0/6
% Growth Delay Low ([8]; OVCAR-5, 0.3 mg/kg/injection, time for tumours to reach 250 mg): 32%
% T/C Mid ([8]; OVCAR-5, 0.45 mg/kg/injection once every 4th day, 3 doses): 45%
Toxicity Mid ([8]; OVCAR-5, 0.45 mg/kg/injection once every 4th day, 3 doses, mice which died as a result of treatment): 0/6
% Growth Delay Mid ([8]; OVCAR-5, 0.45 mg/kg/injection, time for tumours to reach 250 mg): 28%
% T/C High ([8]; OVCAR-5, 0.67 mg/kg/injection once every 4th day, 3 doses): 52%
Toxicity High ([8]; OVCAR-5, 0.67 mg/kg/injection once every 4th day, 3 doses, mice which died as a result of treatment): 0
% Growth Delay High ([8]; OVCAR-5, 0.67 mg/kg/injection, time for tumours to reach 250 mg): 16%
tumour size reduction ([8]; OVCAR-5 xenografts, dose not given): approximately 50%
% T/C Low [9, 12]: 67%
Toxicity Low [9, 13]: 0/6
% Growth Delay Low [9, 14]: 43%
% T/C Mid [9, 15]: 28%
Toxicity Mid [9, 16]: 0/6
% Growth Delay Mid [9, 17]: 43%
% T/C High [9, 18]: 22%
Toxicity High [9, 19]: 0/6
% Growth Delay High [9, 20]: 43%
% T/C Low [10, 12]: 46%
Toxicity Low [10, 13]: 0/6
% Growth Delay Low [10, 14]: 9%
% T/C Mid [10, 15]: 20%
Toxicity Mid [10, 16]: 0/6
% Growth Delay Mid [10, 17]: 73%
% T/C High [10, 18]: 7%
Toxicity High [10, 19]: 0/6
% Growth Delay High [10, 20]: 73%
% T/C Low ([11]; MDA-MB-435, 0.3 mg/kg/injection once every 4th day, 3 doses): 3%
Toxicity Low ([11]; MDA-MB-435, 0.3 mg/kg/injection once every 4th day, 3 doses, mice which died as a result of treatment): 2/6
% Growth Delay Low ([11]; MDA-MB-435, 0.3 mg/kg/injection, time for tumours to reach 250 mg): 41%
% T/C Mid ([11]; MDA-MB-435, 0.45 mg/kg/injection once every 4th day, 3 doses): 3%
Toxicity Mid ([11]; MDA-MB-435, 0.45 mg/kg/injection once every 4th day, 3 doses, mice which died as a result of treatment): 1/6
% Growth Delay Mid ([11]; MDA-MB-435, 0.45 mg/kg/injection, time for tumours to reach 250 mg): 41%
% T/C High ([11]; MDA-MB-435, 0.67 mg/kg/injection once every 4th day, 3 doses): toxic
Toxicity High ([11]; MDA-MB-435, 0.67 mg/kg/injection once every 4th day, 3 doses, mice which died as a result of treatment): 3/6
% Growth Delay High ([11]; MDA-MB-435, 0.67 mg/kg/injection, time for tumours to reach 250 mg): 41%
delay in the time taken to reach tumour mass of 250 mg [11, 21]: 41%
tumour growth in treated mice as % of the tumour growth in the control population [11, 21]: 3%
